What follows are compounds tested against BRD4 (Homo sapiens, UniProt O60885) (assay: Time Resolved Fluorescence Resonance Energy Transfer (TR-FRET) binding assay). Details: one of the FRET assays described (BRD4 construct not given).

`Cc1noc(C)c1-c1cc(C(N)=O)c2c(c1)c1ccc(N3CCOC3=O)cc1n2CC1CC1` [Example 45, 9-(cyclopropylmethyl)-3-(3,5-dimethyl-4-isoxazolyl)-7-(2-oxo-1,3-oxazolidin-3-yl)-9H-carbazole-1-carboxamide] and `Cc1noc(C)c1-c1cc(C(N)=O)c2c(c1)c1ccc(N3CCCOC3=O)cc1n2CC1CC1` [Example 43, 9-(cyclopropylmethyl)-3-(3,5-dimethyl-4-isoxazolyl)-7-(2-oxo-1,3-oxazinan-3-yl)-9H-carbazole-1-carboxamide] cannot be ordered by IC50: under 500 nM for the first, under 50 nM for the second.

`Cc1noc(C)c1-c1cc(C(N)=O)c2c(c1)c1c(C(=O)N3C[C@@H](C)O[C@@H](C)C3)cc(OC(F)(F)F)cc1n2S(C)(=O)=O` [Example 76, 3-(3,5-dimethyl-4-isoxazolyl)-5-((cis-2,6-dimethyl-4-morpholinyl)carbonyl)-9-(methylsulfonyl)-7-(trifluoromethoxy)-9H-carbazole-1-carboxamide] and `Cc1noc(C)c1-c1cc(C(N)=O)c2c(c1)c1c(C(=O)N3C[C@@H](C)O[C@@H](C)C3)cc(C(F)(F)F)cc1n2S(=O)(=O)C1CC1` [Example 74, 9-(cyclopropylsulfonyl)-3-(3,5-dimethyl-4-isoxazolyl)-5-((cis-2,6-dimethyl-4-morpholinyl)carbonyl)-7-(trifluoromethyl)-9H-carbazole-1-carboxamide] cannot be ordered by IC50: under 50 nM for the first, under 500 nM for the second.

`Cc1n[nH]c(C)c1-c1cc(C(N)=O)c2c(c1)c1ccc(C(=O)N3C[C@@H](C)O[C@@H](C)C3)cc1n2CC1CC1` [Example 83, 9-(cyclopropylmethyl)-7-((cis-2,6-dimethyl-4-morpholinyl)carbonyl)-3-(3,5-dimethyl-1H-pyrazol-4-yl)-9H-carbazole-1-carboxamide] and `Cc1noc(C)c1-c1cc(C(N)=O)c2c(c1)c1ccc(C(=O)N3CCOCC3)cc1n2CC1CC1` [Example 4, 9-(cyclopropylmethyl)-3-(3,5-dimethyl-4-isoxazolyl)-7-(4-morpholinylcarbonyl)-9H-carbazole-1-carboxamide] cannot be ordered by IC50: under 500 nM for the first, under 50 nM for the second.

`Cc1noc(C)c1-c1cc(C(N)=O)c2c(c1)c1ccc(C(=O)N3CC(F)(F)C3)cc1n2S(=O)(=O)C1CC1` [Example 24, 9-(cyclopropylsulfonyl)-7-((3,3-difluoro-1-azetidinyl)carbonyl)-3-(3,5-dimethyl-4-isoxazolyl)-9H-carbazole-1-carboxamide] and `Cc1noc(C)c1-c1cc(C(N)=O)c2c(c1)c1ccc(C(=O)N3CCC(F)CC3)cc1n2S(C)(=O)=O` [Example 8, 3-(3,5-dimethyl-4-isoxazolyl)-7-((4-fluoro-1-piperidinyl)carbonyl)-9-(methylsulfonyl)-9H-carbazole-1-carboxamide] cannot be ordered by IC50: under 50 nM for the first, under 500 nM for the second.

`Cc1csc(-c2cc(-c3c(C)noc3C)cc3c2[nH]c2cc(C(=O)N4CCOCC4)ccc23)n1` [Example 65] and `Cc1cnc(-c2cc(-c3c(C)noc3C)cc3c2[nH]c2cc(C(=O)N4CCOCC4)ccc23)o1` [Example 62, 3-(3,5-dimethyl-4-isoxazolyl)-1-(5-methyl-1,3-oxazol-2-yl)-7-(4-morpholinylcarbonyl)-9H-carbazole] cannot be ordered by IC50: under 5000 nM for the first, under 5000 nM for the second.

`Cc1noc(C)c1-c1cc(C(N)=O)c2c(c1)c1ccc(C(=O)N(C)C)cc1n2S(C)(=O)=O` [Example 12, 3-(3,5-dimethyl-4-isoxazolyl)-N7,N7-dimethyl-9-(methylsulfonyl)-9H-carbazole-1,7-dicarboxamide] and `Cc1noc(C)c1-c1cc(C(N)=O)c2c(c1)c1ccc(C(=O)N3CCC(N(C)C)C3)cc1n2S(C)(=O)=O` (stereo not drawn) [Example 18, 7-((3-(dimethylamino)-1-pyrrolidinyl)carbonyl)-3-(3,5-dimethyl-4-isoxazolyl)-9-(methylsulfonyl)-9H-carbazole-1-carboxamide] cannot be ordered by IC50: under 50 nM for the first, under 50 nM for the second.

`Cc1noc(C)c1-c1cc(C(N)=O)c2c(c1)c1ccc(NC(=O)OC(C)(C)C)cc1n2CC1CC1` [Example 27, tert-butyl(8-carbamoyl-9-(cyclopropylmethyl)-6-(3,5-dimethyl-4-isoxazolyl)-9H-carbazol-2-yl)carbamate] and `Cc1noc(C)c1-c1cc(C(N)=O)c2c(c1)c1ccc(O)cc1n2CC1CC1` [Example 48, 9-(cyclopropylmethyl)-3-(3,5-dimethyl-4-isoxazolyl)-7-hydroxy-9H-carbazole-1-carboxamide] cannot be ordered by IC50: under 500 nM for the first, under 500 nM for the second.

`Cc1noc(C)c1-c1cc(-c2nc[nH]n2)c2c(c1)c1ccc(C(=O)N3CCOCC3)cc1n2CC1CC1` [Example 70, 9-(cyclopropylmethyl)-3-(3,5-dimethyl-4-isoxazolyl)-7-(4-morpholinylcarbonyl)-1-(1H-1,2,4-triazol-3-yl)-9H-carbazole] and `Cc1noc(C)c1-c1cc(-c2nc[nH]n2)c2[nH]c3cc(C(=O)N4CCOCC4)ccc3c2c1` [Example 69, 3-(3,5-dimethyl-4-isoxazolyl)-7-(4-morpholinylcarbonyl)-1-(1H-1,2,4-triazol-3-yl)-9H-carbazole] cannot be ordered by IC50: under 5000 nM for the first, under 500 nM for the second.

`CC(=O)N(C)c1ccc2c3cc(-c4c(C)noc4C)cc(C(N)=O)c3n(CC3CC3)c2c1` [Example 40, 7-(acetyl(methyl)amino)-9-(cyclopropylmethyl)-3-(3,5-dimethyl-4-isoxazolyl)-9H-carbazole-1-carboxamide] and `Cc1noc(C)c1-c1cc(C(N)=O)c2c(c1)c1ccc(C=O)cc1n2CC1CC1` [Example 47, 9-(cyclopropylmethyl)-3-(3,5-dimethyl-4-isoxazolyl)-7-formyl-9H-carbazole-1-carboxamide] cannot be ordered by IC50: under 50 nM for the first, under 500 nM for the second.

`Cc1noc(C)c1-c1cc(C(N)=O)c2c(c1)c1ccc(C(=O)N3C(C)(C)CC(O)CC3(C)C)cc1n2S(C)(=O)=O` [Example 16, 3-(3,5-dimethyl-4-isoxazolyl)-7-((4-hydroxy-2,2,6,6-tetramethyl-1-piperidinyl)carbonyl)-9-(methylsulfonyl)-9H-carbazole-1-carboxamide] and `Cc1noc(C)c1-c1cc(C(N)=O)c2c(c1)c1ccc(C(=O)N3CCCC(F)C3)cc1n2S(C)(=O)=O` (stereo not drawn) [Example 13, 3-(3,5-dimethyl-4-isoxazolyl)-7-((3-fluoro-1-piperidinyl)carbonyl)-9-(methylsulfonyl)-9H-carbazole-1-carboxamide] cannot be ordered by IC50: under 50 nM for the first, under 50 nM for the second.

`Cc1noc(C)c1-c1cc(C(N)=O)c2c(c1)c1ccc(C(=O)N3CCC(C#N)CC3)cc1n2S(C)(=O)=O` [Example 6, 7-((4-cyano-1-piperidinyl)carbonyl)-3-(3,5-dimethyl-4-isoxazolyl)-9-(methylsulfonyl)-9H-carbazole-1-carboxamide] and `Cc1noc(C)c1-c1cc(C(N)=O)c2c(c1)c1ccc(C(=O)N3CCC(C#N)CC3)cc1n2S(=O)(=O)C1CC1` [Example 20, 7-((4-cyano-1-piperidinyl)carbonyl)-9-(cyclopropylsulfonyl)-3-(3,5-dimethyl-4-isoxazolyl)-9H-carbazole-1-carboxamide] cannot be ordered by IC50: under 50 nM for the first, under 50 nM for the second.

`Cc1noc(C)c1-c1cc(C(N)=O)c2c(c1)c1cc(S(C)(=O)=O)ccc1n2S(=O)(=O)C1CC1` [Example 77, 9-(cyclopropylsulfonyl)-3-(3,5-dimethyl-4-isoxazolyl)-6-(methylsulfonyl)-9H-carbazole-1-carboxamide] and `Cc1noc(C)c1-c1cc(C(N)=O)c2c(c1)c1cc(C(=O)N3CCOCC3)ccc1n2S(=O)(=O)C1CC1` [Example 87, 9-(cyclopropylsulfonyl)-3-(3,5-dimethyl-4-isoxazolyl)-6-(4-morpholinylcarbonyl)-9H-carbazole-1-carboxamide] cannot be ordered by IC50: under 500 nM for the first, under 50 nM for the second.

From patent US10053454B2 (Bristol-Myers Squibb Company, priority 2013, dated 2018)
